The record followed here is patent US8222300B2, “Methods of treating parkinson's disease using halogenated volatile compounds” (Mouse Specifics, Inc., priority 2007, dated 2012).

This data set concerns adult female CD-1 mice. Format: in vivo. How it is done:
Isoflurane is a halogenated inhalation anesthetic and is routinely used in laboratory animals for its anesthetic properties. In this experiment, posture and gait in mice after brief isoflurane anesthesia was investigated.
Ventral plane videography was used to image 4 adult female CD-1 mice walking 25 cm/s on a transparent treadmill belt just prior to 5 minutes of isoflurane (2.5% isoflurane final concentration in 100% oxygen) anesthesia. Gait analysis was again performed at 25 cm/s 1, 15, 30 and 60 minutes after the animals regained their righting reflex. Mice were placed in a chamber and delivered the isoflurane via a system which vaporized the isoflurane and mixed it with the oxygen using an anesthesia system (EZ Anesthesia™, Euthanex).
When the mice first emerged from the anesthesia (animals were moved from an anesthesia box to room air, including oxygen and CO2), they were groggy for about 2-40 seconds. Following the brief groggy period, a supranormal function became apparent as their gait (including stride length, stance width, and swing duration) was improved relative to prior to the administration of the isoflurane.

Where [1] appears, read: following cessation of anesthesia.

As to `FC(F)OC(Cl)C(F)(F)F` (stereo not shown) [isoflurane, 2-chloro-2-(difluoromethoxy)-1,1,1-trifluoro-ethane], for the setting “1 minute after recovery”, the “Increase of swing duration compared to baseline” value is recorded as about 50%. In addition, the Stride length (1 minute after recovery from 5 minutes of 2.5% isoflurane in 100% oxygen, treadmill 25 cm/s, baseline 6.3±0.1 cm, P<0.05) is on record as 7.6±0.2 cm. Also, the Stance width variability result (1 minute after recovery from isoflurane, versus baseline) is listed as “lower”. In addition, the Swing duration (1 minute after recovery, baseline 77±3 ms, P<0.05) was 103 ± 3 ms. The “Propulsion duration of the hind limbs” value (1 minute after recovery, baseline 128±5 ms, P<0.05) stood at 167 ± 6 ms. This compound had a Stepping frequency (1 minute after recovery, treadmill 25 cm/s, baseline 4.1±0.1 Hz, P<0.05) of 3.3±0.1 Hz. Under setting [1], the “Persistence of some supranormal gait characteristics” value is about 30 min and the “Time for all gait metrics to return to baseline” value is at most 60 min. For the same compound, the “Duration of groggy period on emergence from anesthesia” value (mouse, in vivo) fell in the range of 2 to 40 s. In addition, the “Increase in stride length” value (some mice emerging from isoflurane anesthesia) is on record as “about 25%”.
